According to US12515032B2, “Gelatin methacryloyl-based microneedle patches for delivery of water-insoluble drugs” (THE REGENTS OF THE UNIVERSITY OF CALIFORNIA, priority 2020, dated 2026):

Legend:
[1] = Aqueous stability of curcumin in DPBS (absorbance at 430 nm); format: physicochemical; details: after 1 h at 37° C. incubation
Protocol: The stability of curcumin was monitored by measuring absorbance at 430 nm for both the inclusion complex and free curcumin dissolved in DPBS (DPBS diluted with ethanol). The percentage of remaining curcumin was estimated by measuring the absorbance compared to the initial absorbance over a 6 h period. […] GelMA-β-(D) and curcumin inclusion complex preparation: […] For comparison of curcumin solubility, GelMA was used as a control and the resulting solution was named as GelMA/CUR. After the equilibrium was reached, the suspension was centrifuged at 12,000 rpm for 10 min; supernatants were withdrawn and further filtered through a 0.22 μm film. The inclusion complex solutions were measured for absorbance at 430 nm to assess solubility. The prepared GelMA-β-CD/CUR solution was also used for aqueous stability study compared to free curcumin dissolved in DPBS (DPBS:ethanol as 4:1). The GelMA-β-CD/CUR solutions were freeze-dried for additional FTIR and DSC analysis.

[2] = Curcumin loading capacity / solubility in GelMA and GelMA-β-CD solution (absorbance at 430 nm); format: physicochemical
Protocol: Curcumin was selected as a model for water-insoluble drug or therapeutic agent 26 (FIG. 11) to test the loading efficacy of GelMA-β-CD. Aqueous drug suspension was used to compare the loading capacity relative to unmodified GelMA. […] The intermolecular interaction between CD and curcumin primarily dictated the desirable properties of water-insoluble drug 26 delivery.
GelMA-β-(D) and curcumin inclusion complex preparation: To prepare the inclusion complex, excess amount of curcumin (5 mg) was added to pre-dissolved GelMA-β-CD solution in 1 mL DPBS (20%, g/mL) and stirred at 37° C. for 30 min to form the inclusion complex solution where curcumin could be encapsulated within the cavity of CD and the resulting solution was named as GelMA-β-CD/CUR. For comparison of curcumin solubility, GelMA was used as a control and the resulting solution was named as GelMA/CUR. After the equilibrium was reached, the suspension was centrifuged at 12,000 rpm for 10 min; supernatants were withdrawn and further filtered through a 0.22 μm film. The inclusion complex solutions were measured for absorbance at 430 nm to assess solubility. The prepared GelMA-β-CD/CUR solution was also used for aqueous stability study compared to free curcumin dissolved in DPBS (DPBS:ethanol as 4:1). The GelMA-β-CD/CUR solutions were freeze-dried for additional FTIR and DSC analysis.

Percentage of remaining curcumin [1]	Loading capacity (solubility) of curcumin [2] [mg/mL]	Molecule
approximately 45%		COc1cc(/C=C/C(=O)CC(=O)/C=C/c2ccc(O)c(OC)c2)ccc1O [curcumin]
	0.0848 ± 0.0135	gelatin methacryloyl [GelMA]
